Data as given in PubChem BioAssay (NCI).
Where “and” joins values, the source holds several entries; their conditions need not be identical. Equal entries are not always repeated.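 Each compound was tested at five concentrations against cells in 96-well plates for 48 hours. At the GI50, growth is halved. TGI: total growth inhibition.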

How the values were obtained:
Assay in all cases: growth of human tumour cells (NCI), 48 h
HOP-62 NSCLC = tested on: HOP-62 NSCLC
HT29 colon = tested on: HT29 colon
LOX IMVI melanoma = tested on: LOX IMVI melanoma
MDA-MB-435 = tested on: MDA-MB-435
NCI-H23 lung = tested on: NCI-H23 lung
OVCAR-4 ovarian = tested on: OVCAR-4 ovarian
SF-268 CNS = tested on: SF-268 CNS
SN12C renal = tested on: SN12C renal
T-47D breast = tested on: T-47D breast
UACC-62 melanoma = tested on: UACC-62 melanoma

| SMILES | TGI (HOP-62 NSCLC) [µM] | TGI (HT29 colon) [µM] | TGI (LOX IMVI melanoma) [µM] | TGI (MDA-MB-435) [µM] | TGI (NCI-H23 lung) [µM] | TGI (OVCAR-4 ovarian) [µM] | TGI (SF-268 CNS) | TGI (SN12C renal) | TGI (T-47D breast) [µM] | TGI (UACC-62 melanoma) [µM] | GI50 (HOP-62 NSCLC) [µM] | GI50 (HT29 colon) [µM] | GI50 (LOX IMVI melanoma) [µM] | GI50 (MDA-MB-435) [µM] | GI50 (NCI-H23 lung) [µM] | GI50 (OVCAR-4 ovarian) [µM] | GI50 (SF-268 CNS) [µM] | GI50 (SN12C renal) [µM] | GI50 (T-47D breast) [µM] | GI50 (UACC-62 melanoma) [µM] |
| --- | --- | --- | --- | --- | --- | --- | --- | --- | --- | --- | --- | --- | --- | --- | --- | --- | --- | --- | --- | --- |
| CC(C)Cn1cnc2c(SCc3ccc(Cl)cc3Cl)nc(N)nc21 | > 100 | > 100 | 38.3 | > 100 | > 100 | > 100 | > 100 µM | > 100 µM | > 100 | > 100 | – | – | – | – | – | – | – | – | – | – |
| COc1ccc(/C=C/C(=O)c2cc(OC)c(OC)c(OC)c2)cc1OCc1cn(Cc2ccc(F)cc2)nn1 | 6.18 | 7.3 | 18.7 | > 100 | 64.2 | > 100 | > 100 µM | > 100 µM | > 100 | 14.3 | 2.14 | 3 | 2.75 | 2.78 | 18.9 | 3.42 | 2.98 | 3.12 | 3.05 | 3.16 |
| ClCc1cccc2c(CCl)cccc12 | 10.2 | 11.2 | 4.3 | 18.7 | 22.8 | 75.7 | 15 µM | 32.2 µM | 10.5 | 23.3 | 3.24 | 2.88 | 1.39 | 4.28 | 5.2 | 12 | 2.95 | 3.47 | 1.81 | 3.25 |
| C=C1C(=O)O[C@H]2[C@H]1CC/C(COC(=O)CSCSCC(=O)OC/C1=C/CC[C@@]3(C)O[C@H]3[C@H]3OC(=O)C(=C)[C@@H]3CC1)=C\CC[C@@]1(C)O[C@@H]21 | 8.38 | 2.82 | 2.65 | 4.56 | 4.01 | 8.74 | 4.31 µM | 3.85 µM | 3.7 | 4.03 | 2.59 | 1.37 | 1.3 | 2 | 1.83 | 2.68 | 1.79 | 1.65 | 1.53 | 1.88 |
| C/C(=N\NC(=S)N1CC2CCC(CC2)C1)c1nccs1 | 5.66 | 15.9 | 9.09 | 12.7 | 13 | 17.6 | 9.41 µM | 12.5 µM | 14.6 | 0.893 | – | – | – | – | – | – | – | – | – | – |
| CN(/N=C/c1cccc2cccnc12)c1ccc([N+](=O)[O-])cc1[N+](=O)[O-] | 22.9 | > 100 | > 100 | > 100 | 50.1 | > 70.3 | 58.6 µM | > 100 µM | 85.4 | 63.1 | – | – | – | – | – | – | – | – | – | – |
| C[C@]12CC[C@@H]3c4ccc(OC(=O)N(CCCl)CCCl)cc4CC[C@H]3[C@@H]1CC[C@@H]2O | – | – | 14.3 | 6.15 | – | 39.5 | 18.9 µM and 3.14 µM | 17.4 µM and 3.48 µM | 40.7 | 16.2 | 2.44 | 2.41 | 2.43 | 0.354 | 2.79 | 4.36 | 3.48 | 3.37 | 4.83 | 1.41 |
| COC12C=C/C(=C(/C(=O)OCc3cncnc3)C(=O)CCCCCCCCC3(OC)C=C/C(=C(/C(=O)OCc4cncnc4)C(=O)CCCCCCCC1)O3)O2 | 2.97 | 1.09 | 0.524 | 0.208 | 0.839 | 2.81 | 4 µM | 1.98 µM | > 50 | 1.21 | 0.624 | 0.21 | 0.155 | 0.099 | 0.186 | 0.548 | 0.312 | 0.404 | 0.232 | 0.533 |
| C/C=C(\C)C(=O)NC1=CC[C@@]2(C)C(=CCC3C2CC[C@@]2(C)C3CC[C@@H]2C(C)N(C)C)C1=O (stereo partly specified) | 5.51 | 2.6 | 3.58 | 7.08 | 25.1 | > 50.2 | 6.93 µM | 22.3 µM | 25.7 | 3.85 | 2.08 | 0.57 | 1.63 | 2.35 | 3.95 | 4.58 | 2.14 | 4.47 | 1.94 | 1.82 |
| C[C@@]1(C(=O)O)CCC[C@]2(C)C1CC[C@@]13CC(=O)[C@@](CO)(CC[C@]12O)C3 (stereo partly specified) | > 100 | > 100 | > 100 | > 100 | > 100 | > 100 | > 100 µM | > 100 µM | > 100 | > 100 | > 100 | > 100 | > 100 | > 100 | > 100 | > 100 | > 100 | > 100 | 22.2 | > 100 |
| CSC(=Nc1nnc(-c2ccc([N+](=O)[O-])cc2)s1)SC | 53.3 | > 100 | > 83.3 | > 100 | 98.6 | > 85 | 68 µM | > 100 µM | > 100 | > 76.5 | – | – | – | – | – | – | – | – | – | – |
| O=C1C(Cl)=C(Nc2cccc(F)c2)C(=O)N1Cc1ccc(Cl)cc1 | 7.19 | 12.9 | 3.41 | 2.3 | 14.4 | 24.6 | 8.07 µM | 4.81 µM | 27.7 | 2.48 | 0.974 | 0.911 | 0.649 | 0.665 | 0.832 | 4.04 | 1.43 | 0.825 | 3.57 | – |
| COC(=O)c1ccc(-c2nc3cc(Cl)c(Cl)cc3nc2C#N)cc1 | > 100 | > 100 | > 100 | > 100 | > 100 | > 100 | > 100 µM | > 100 µM | > 100 | > 100 | 82.4 | > 100 | > 100 | > 100 | > 100 | > 100 | > 100 | > 100 | > 100 | > 100 |
| CCCCON(OC(=O)c1ccc2ccccc2c1)C(=O)c1ccccc1 | > 100 | > 100 | 72 | > 100 | > 100 | > 100 | > 100 µM | > 100 µM | > 100 | > 100 | > 100 | > 100 | 25.3 | > 100 | 90.2 | > 100 | > 100 | > 100 | > 100 | > 100 |
